The values that follow come from patent publication US20250163062A1, “WNT PATHWAY INHIBITOR COMPOUNDS” (ADLAI NORTYE BIOPHARMA CO., LTD., priority 2022, published 2025).

pIC50: −log10 of the molar value. Read-outs that look alike come from different tables or passages of the source.

Holding throughout (assay type): cell-based
In assay [1] the test system is Colo205. Put plainly: Proliferation inhibition test, Wnt mutant cell line Colo205. The conditions noted are these: Colo205, 96 h culture with compound, read-out: Antiproliferation IC50 Colo205. An excerpt:
(§1) The cell lines used in the experiment are Colo205, H929, HepG2, and DU4475, which have sustained activation of the Wnt pathway and whose proliferation is Wnt pathway-dependent. On the other hand, RKO cell line, in which normally the Wnt pathway is not activated and whose proliferation is not Wnt pathway-dependent, was used as a control cell line. This was done to determine whether the inhibitory effect of the compound of the present disclosure on Wnt-dependent proliferation is due to other nonspecific toxicity.
(§2) Colo205, H929, DU4475, HepG2 and RKO cell lines cultured in their respective culture media were treated in the logarithmic growth phase, and the cells were collected and prepared into a uniform cell suspension of known concentration, and then added to a 96-well cell culture plate so that each well contained 1000-4000 cells. Place in a 5% CO2 cell culture incubator and culture at 37° C. for 20-24 h. On the second day, add the completely dissolved, 3-fold gradient dilution compound to each cell culture well to make the final maximum concentration in the cell culture well 10 uM, and continue to culture for 96 h. This test uses Promega's cell activity detection test for detection. The more the cells proliferate, the stronger the final signal intensity. The detection instrument is SpectraMax, full wavelength mode. The wells with only DMSO added were used as positive control wells, and the wells without cells inoculated were used as negative control wells.

The subject of assay [2] is HepG2. The assay is described as follows: Proliferation inhibition test, Wnt mutant cell line HepG2. As to conditions: HepG2, 96 h culture with compound, read-out: Antiproliferation IC50 HepG2.
Description: as §1, §2

Assay [3] deals with DU4475. The assay is described as follows: Proliferation inhibition test, Wnt mutant cell line DU4475. The conditions noted are these: Homo sapiens, DU-4475, 96 h, DU4475, 96 h culture with compound; read-out: Antiproliferation IC50 DU4475.
Description: as §1, §2

In assay [4] the test system is Colo205-LUC-TCF/LEF reporter gene. The assay is described as follows: Colo205-LUC-TCF/LEF M1 reporter cell line luciferase inhibition. As to conditions: 4 hours incubation, firefly luciferase signal. The procedure:
Colo205 cell line (Cell Bank of Chinese Academy of Sciences, Cat #TCHul02) was purchased from the Cell Bank of Chinese Academy of Sciences. After expansion and subculture, during the exponential growth phase, luciferase reporter plasmid (Promega) driven by TCF/LEF transcription factor was transfected by lipo3000 liposome transfection. The plasmid carries a resistance gene for resistance screening. Transfection was carried out in 10 cm culture dishes using conventional complete medium without resistance. After 2 days, the medium with resistance was replaced, and the culture was continued. After that, the medium with resistance was replaced every 2 days, and the suspended cells were discarded. The original medium was centrifuged to remove cells and debris and retained as an adaptive medium. When the cells covered the culture dish, the cells were digested, counted, and passaged in a 96-well plate, so that the average number of cells contained in each well was 1.5/well, and the adaptive medium was used for passage. The rest of the cells were frozen. After passage, culture for 4 hours to allow the cells to adhere to the wall, and then observe the number of cells in each well under a microscope. Wells with only 1 cell per well were labeled as monoclonal wells. Afterwards, normal culture was performed, and the culture medium was replaced every 2 days, and observed. There are wells where the monoclonal cells continue to grow in the early stage, and they are labeled twice, and can be replaced with normal medium with resistance. When a monoclonal well was overgrown with a 96-well plate, it is digested and passaged to a 24-well culture plate. After the 24-well plate is overgrown, it is passaged to a 96-well plate and a 6-well plate. The cells in a 96-well plate are at least 6 wells, of which 3 wells were added with known Wnt inhibitors, and the other 3 wells were not treated. After 24 hours, the cells in the 96-well plate were added with a fluorescence detection reagent to detect the fluorescence intensity. Cell lines with fluorescent expression when not treated and decreased fluorescent light after inhibition were selected and further cultured. The Colo205-LUC-TCF/LEF-M1 cell line is one of the cell lines screened above. Its growth curve, cell shape, and cell growth state are similar to those of the original Colo205 cells, and the ratio of the fluorescent signals of the inhibitor-treated and untreated cells is the largest among all cell lines, and the ratio can reach 4-5 times when inhibited at 4 hours, which was completely suitable for the screening of Wnt inhibitors in the later stage.
The Colo205-LUC-TCF/LEF M1 cell line is a reporter tool cell stably transfected with the pGL4.49-LUC2-TCF/LEF vector. The β-catenin Wnt pathway is continuously activated. After adding the inhibitor, the Wnt pathway is inhibited. The expression of firefly luciferase regulated by the TCF/LEF cis-element decreased, and after adding the detection substrate, the detected light signal decreased accordingly, so as to detect the inhibitory effect of the compound.
To a 96-well cell culture plate, add 100 uL of the compound with a maximum concentration of 20 uM to each well, and make a 3-fold serial dilution of the compound concentration. Then 10,000 colo205 cells stably transfected with the reporter gene and 100 uL medium were inoculated into each well, and corresponding positive and negative control wells were made at the same time. Put the cells in a 5% CO2 incubator and incubate at 37° C. for 4 hours. After 4 hours, remove the culture medium, add 100 μL of reagent (Promega) containing the corresponding firefly luciferase substrate to each well, and measure the activity of luciferase reporter gene. Luminescence intensity was read with SpectraMax in full wavelength mode. […]

Assay [5] has as its system RKO. Put plainly: Proliferation inhibition test, non-Wnt mutant control cell line RKO. The conditions noted are these: Homo sapiens; RKO (Wnt pathway not activated, control), 96 h culture, maximum concentration 10 uM; read-out: Antiproliferation IC50 RKO.
Description: as §1, §2

The subject of assay [6] is H929. The assay is described as follows: Proliferation inhibition test, Wnt mutant cell line H929. The conditions noted are these: Homo sapiens, NCI-H929, 96 h, H929, 96 h culture with compound; read-out: Antiproliferation IC50 H929.
Description: as §1, §2

In the case of `[2H]C([2H])([2H])N1c2nc(NCc3ccc(Oc4ccc(C(F)(F)F)nc4Br)nc3)nc3c2N(CCC3)C(=O)[C@]1(C)CO` [Compound 12, (S)-2-(((6-((2-bromo-6-(trifluoromethyl)pyridin-3-yl)oxy)pyridin-3-yl)methyl)amino)-5-(hydroxymethyl)-5-methyl-4-(methyl-d3)-4,5,9,10-tetrahydro-6H,8H-pyrid o[3,2,1-de]pteridin-6-one], the pIC50 in assay [1] (Homo sapiens, COLO 205, 96 h) was 8.19; in assay [2] (Homo sapiens, HepG2, 96 h), 7.92; in assay [3], 9.09; in assay [4] (4 h), 8.04; in assay [5], under 5.00; in assay [6] it was 7.51.

For the compound `CN1c2nc(NCc3ccc(Oc4ccc(C(F)(F)F)nc4Cl)nc3)nc3c2N(CCC3)C(=O)[C@@H]1CO` [Compound 2, (S)-2-(((6-((2-chloro-6-(trifluoromethyl)pyridin-3-yl)oxy)pyridin-3-yl)methyl)amino)-5-(hydroxymethyl)-4-methyl-4,5,9,10-tetrahydro-6H,8H-pyrido[3,2,1-de]pteridin-6-one], the pIC50 is 8.06 in assay [1] (Homo sapiens, COLO 205, 96 h); 8.77 in assay [2] (Homo sapiens, HepG2, 96 h); 8.30 in assay [3]; 7.65 in assay [4] (4 h); under 5.00 in assay [5]; 7.32 in assay [6].

Take `Cc1nc(C(F)(F)F)ncc1Oc1ccc(CNc2nc3c4c(n2)N(C)[C@@](C)(CO)C(=O)N4CCC3)cn1` [Compound 19]: the pIC50 is 7.57 in assay [1] (Homo sapiens, COLO 205, 96 h); 7.51 in assay [2] (Homo sapiens, HepG2, 96 h); 7.83 in assay [3]; 7.46 in assay [4] (4 h); under 5.00 in assay [5]; 7.23 in assay [6].

On to `CNc1nc(C(F)(F)F)ccc1Oc1ccc(CNc2nc3c4c(n2)N(C)[C@@](C)(CO)C(=O)N4CCC3)cn1` [Compound 16, (S)-5-(Hydroxymethyl)-4,5-dimethyl-2-(((6-((2-(methylamino)-6-(trifluoromethyl)pyridin-3-yl)oxy)pyridin-3-yl)methyl)amino)-4,5,9,10-tetrahydro-6H,8H-pyrido[3,2,1-de]pteridin-6-one], for which the pIC50 in assay [1] (Homo sapiens, COLO 205, 96 h) is over 10.00; in assay [2] (Homo sapiens, HepG2, 96 h), 8.95; in assay [3] it was 8.92; in assay [4] (4 h), 7.67; in assay [5], under 5.00; in assay [6], 6.99.

As to `[2H]C([2H])([2H])N1c2nc(NCc3ccc(Oc4ccc(C(F)(F)F)nc4Cl)nc3)nc3c2N(CCC3)C(=O)[C@]1(C)CO` [Compound 3, (S)-2-(((6-((2-chloro-6-(trifluoromethyl)pyridin-3-yl)oxy)pyridin-3-yl)methyl)amino)-5-(hydroxymethyl)-5-methyl-4-(methyl-d3)-4,5,9,10-tetrahydro-6H,8H-pyrido[3,2,1-de]pteridin-6-one], the pIC50 in assay [1] (Homo sapiens, COLO 205, 96 h) is 8.35; in assay [2] (Homo sapiens, HepG2, 96 h) it was 8.66; in assay [3], 8.51; in assay [4] (4 h), 7.81; in assay [5] it was under 5.00; in assay [6], 7.70.

In the case of `Cc1nc(C(F)(F)F)ncc1Oc1ccc(CNc2nc3c4c(n2)N(C)[C@@](C)([C@H](C)O)C(=O)N4CCC3)cn1` [Compound 6, (S)-5-((S)-1-hydroxyethyl)-4,5-dimethyl-2-(((6-((4-methyl-2-(trifluoromethyl)pyrimidin-5-yl)oxy)pyridin-3-yl)methyl)amino)-4,5,9,10-tetrahydro-6H,8H-pyrido[3,2,1-de]pteridin-6-one], the pIC50 is 8.04 in assay [1]; 6.96 in assay [2]; 7.32 in assay [3]; 7.18 in assay [4]; under 5.00 in assay [5]; 6.52 in assay [6].
